From US20230322789A1, “PYRAZOLOPYRIDAZINONE COMPOUND, AND PHARMACEUTICAL COMPOSITION AND USE THEREOF” (BroadenBio Co., Ltd., priority 2020, published 2023) come the findings set out here.

The structures appear in SMILES notation.

In experiment [1] the target is HPK1 (Homo sapiens (Human), UniProt Q92918). The experiment can be described thus: HPK1 kinase activity inhibition test (ADP-Glo, luminescence). To be noted: HPK1 5 nM, ATP 2 μM, read-out: IC50, inhibitory effects of compounds on HPK1 kinase activity. The format is biochemical. Summed up: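 HPK1 autophosphorylation was run without added substrate. Kinase and compound were preincubated 10 min at 25° C., then ATP was added for 60 min at 25° C. ADP formed was detected by ADP-Glo luminescence, and IC50 was taken from a four-parameter nonlinear fit.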
Sequence of HPK1 (Q92918 whole entry): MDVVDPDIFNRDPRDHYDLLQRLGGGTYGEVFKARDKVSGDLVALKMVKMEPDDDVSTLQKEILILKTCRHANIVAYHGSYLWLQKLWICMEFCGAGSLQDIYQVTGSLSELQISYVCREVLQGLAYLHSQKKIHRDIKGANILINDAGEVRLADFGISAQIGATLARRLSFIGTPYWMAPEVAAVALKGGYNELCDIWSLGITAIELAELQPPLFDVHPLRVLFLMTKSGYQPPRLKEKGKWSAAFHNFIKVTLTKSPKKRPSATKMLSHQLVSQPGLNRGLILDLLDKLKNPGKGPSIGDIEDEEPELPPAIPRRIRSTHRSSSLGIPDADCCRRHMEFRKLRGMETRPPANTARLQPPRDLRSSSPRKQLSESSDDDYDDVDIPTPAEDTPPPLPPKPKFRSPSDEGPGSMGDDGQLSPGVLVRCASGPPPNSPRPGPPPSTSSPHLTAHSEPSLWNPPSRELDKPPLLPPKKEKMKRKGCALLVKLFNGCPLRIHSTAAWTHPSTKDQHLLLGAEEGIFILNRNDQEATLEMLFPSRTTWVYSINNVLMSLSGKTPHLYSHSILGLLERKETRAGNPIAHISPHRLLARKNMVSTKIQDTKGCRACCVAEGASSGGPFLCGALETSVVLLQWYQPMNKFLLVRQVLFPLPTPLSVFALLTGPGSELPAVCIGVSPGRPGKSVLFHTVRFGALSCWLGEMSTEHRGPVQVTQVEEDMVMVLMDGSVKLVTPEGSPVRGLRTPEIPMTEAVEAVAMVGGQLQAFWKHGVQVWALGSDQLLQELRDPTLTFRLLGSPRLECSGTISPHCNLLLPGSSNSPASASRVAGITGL
Background: In ADP-Glo the light output rises with the ADP produced.

Experiment [2] relates to Human Jurkat-E6-1 cells. The experiment is described as follows: Measurement of IL-2 secretion of Jurkat cells by ELISA. The experiment is classed as cell-based. To be noted: Homo sapiens, Jurkat E6.1, anti-CD3/anti-CD28 stimulation 24 hours, read-out: Percentage of the amount of IL-2 secreted from compound treated/DMSO-treated cells; for activity at 3 µM: test compound 3.0 μM; for activity at 0.33 µM: test compound 0.33 μM; for activity at 1 µM: test compound 1.0 μM. On the procedure:
2. Measurement of IL-2 Secretion of Jurkat Cells by ELISA
Human Jurkat-E6-1 cells were incubated with various concentrations of test compounds for 30 minutes in a humidified incubator at 37° C. and […]. Cells were transferred to cell culture plates pre-coated with anti-human CD3 antibody, then soluble anti-human CD28 antibody was added, and cells were stimulated for 24 hours at 37° C. and 5% CO2 in a humidified incubator. The cell culture medium was collected by centrifugation, and was then transferred to a 96-well transparent microtiter plate (Thermo) pre-coated with anti-human IL-2 antibody, incubated at room temperature for 2 hours, and gently shaken, washed with washing buffer for 4 times, and then followed the ELISA MAX Deluxe Set Human IL-2 (BioLegend) kit procedure, used a microplate reader (Molecular Device, i3X) to read the GD value. The best standard curve was selected by the microplate reader application software, and the corresponding concentration was calculated according to the GD value of the standard. Results are expressed as a percentage of the amount of IL-2 secreted from compound-treated/DMSO-treated cells.

What is called IC50 is the point on the concentration scale where inhibition reaches its midpoint. As for `COc1cccc(F)c1-n1nc2c(-c3cnn(C)c3)n[nH]c2cc1=O` [Compound 21, 5-(2-fluoro-6-methoxyphenyl)-3-(1-methyl-1H-pyrazol-4-yl)-1H-pyrazolo[4,3-c]pyridazin-6(5H)-one], the IC50 in experiment [1] lay within 50 to 500 nM. In addition, the activity at 3 µM in experiment [2] came to 258%.

`COc1cccc(F)c1-n1nc2c(-c3ccc(C4=CCN(C)CC4)cc3)n[nH]c2cc1=O` [Compound 23, 5-(2-fluoro-6-methoxyphenyl)-3-(4-(1-methyl-1,2,3,6-tetrahydro-pyridin-4-yl)phenyl)-1H-pyrazolo[4,3-c]pyridazin-6(5H)-one]: in experiment [1], the half-inhibitory concentration (IC50) was ≤ 50 nM. In addition, the activity at 0.33 µM in experiment [2] came to 379%.

`COc1ccc(-n2nc3c(-c4ccc(N5CCN(C)CC5)cc4)n[nH]c3cc2=O)c(OC)c1` [Compound 25, 5-(2,4-dimethoxyphenyl)-3-(4-(4-methylpiperazin-1-yl)phenyl)-1H-pyrazolo[4,3-c]pyridazin-6(5H)-one]: in experiment [1], the IC50 fell in the range of 50 to 500 nM. In addition, in experiment [2], the activity at 1 µM amounted to 187%.

As to `COc1cccc(F)c1-n1nc2c(-c3ccc(N4CCOCC4)nc3)n[nH]c2cc1=O` [Compound 27, 5-(2-fluoro-6-methoxyphenyl)-3-(6-morpholinopyrid-3-yl)-1H-pyrazolo[4,3-c]pyridazin-6(5H)-one], in experiment [1], the IC50 is ≤ 50 nM. Further, the activity at 0.33 µM in experiment [2] came out at 302%.

In the case of `COc1cccc(F)c1-n1nc2c(-c3cnc(N4CCN(C)CC4)nc3)n[nH]c2cc1=O` [Compound 28, 5-(2-fluoro-6-methoxyphenyl)-3-(2-(4-methylpiperazin-1-yl)pyrimidin-5-yl)-1H-pyrazolo[4,3-c]pyridazin-6(5H)-one], the IC50 in experiment [1] was ≤ 50 nM. Moreover, the activity at 1 µM in experiment [2] was found to be 302%.

Take `CC(C)c1cccc(F)c1-n1nc2c(-c3ccc(N4CCN(C)CC4)cc3)n[nH]c2cc1=O` [Compound 29, 5-(2-fluoro-6-isopropylphenyl)-3-(4-(4-methylpiperazin-1-yl)phenyl)-1H-pyrazolo[4,3-c]pyridazin-6(5H)-one]: the IC50 in experiment [1] was ≤ 50 nM. Besides, the activity at 1 µM in experiment [2] stood at 291%.

Consider `COc1cccc(F)c1-n1nc2c(-c3ccc(N4CCN(C)C(=O)C4)cc3)n[nH]c2cc1=O` [Compound 33, 5-(2-fluoro-6-methoxyphenyl)-3-(4-(4-methyl-3-oxo-piperazin-1-yl)phenyl)-1H-pyrazolo [4,3-c]pyridazin-6(5H)-one], for which, in experiment [1], the IC50 is ≤ 50 nM. Besides, in experiment [2], the activity at 1 µM came to 631%.

As to `CN1CCN(c2ccc(-c3n[nH]c4cc(=O)n(-c5c(F)cccc5C5CC5)nc34)cc2)CC1` [Compound 34, 5-(2-fluoro-6-cyclopropylphenyl)-3-(4-(4-methylpiperazin-1-yl)phenyl)-1H-pyrazolo[4,3-c]pyridazin-6(5H)-one], in experiment [1], the IC50 is ≤ 50 nM. In addition, the activity at 1 µM in experiment [2] is 284%.

In the case of `Cc1cc(C#N)cc(F)c1-n1nc2c(-c3ccc(N4CCN(C)CC4)cc3)n[nH]c2cc1=O` [Compound 42, 3-fluoro-5-methyl-4-(3-(4-(4-methylpiperazin-1-yl)phenyl)-6-oxo-1H-pyrazolo[4,3-c]pyridazin-5(6H)-yl)benzonitrile], the IC50 in experiment [1] was ≤ 50 nM. For the same compound, the activity at 3 µM in experiment [2] is 365%.

With `Cc1cccc(F)c1-n1nc2c(-c3ccc(N4CCN(C5CC5)CC4)cc3)n[nH]c2cc1=O` [Compound 58, 3-(4-(4-cyclopropylpiperazin-1-yl)phenyl)-5-(2-fluoro-6-methylphenyl)-1H-pyrazolo[4,3-c]pyridazin-6(5H)-one], in experiment [1], the half-maximal inhibitory concentration (IC50) was 50 to 500 nM. The activity at 3 µM in experiment [2] was 233%.

On to `Cc1cccc(F)c1-n1nc2c(-c3ccc(N4CC5CCC(C4)N5C)cc3)n[nH]c2cc1=O` [Compound 61, 5-(2-fluoro-6-methylphenyl)-3-(4-(8-methyl-3,8-diazabicyclo[3.2.1]octan-3-yl)phenyl)-1H-pyrazolo[4,3-c]pyridazin-6(5H)-one], for which the IC50 in experiment [1] is ≤ 50 nM. Also, the activity at 3 µM in experiment [2] stood at 635%.

For the compound `COc1cccc(F)c1-n1nc2c(-c3ccc4c(c3)CN(C)CC4)n[nH]c2cc1=O` [Compound 73, 5-(2-fluoro-6-methoxyphenyl)-3-(2-methyl-1,2,3,4-tetrahydroisoquinolin-7-yl)-1H-pyrazolo[4,3-c]pyridazin-6(5H)-one], the IC50 in experiment [1] is ≤ 50 nM. In addition, the activity at 3 µM in experiment [2] was 926%.

For `COc1cc(C#N)cc(F)c1-n1nc2c(-c3ccc(N4CCN(C)CC4)cc3)n[nH]c2cc1=O` [Compound 74, 3-fluoro-5-methoxy-4-(3-(4-(4-methylpiperazin-1-yl)phenyl)-6-oxo-1H-pyrazolo[4,3-c]pyridazin-5(6H)-yl)benzonitrile], in experiment [1], the IC50 is ≤ 50 nM. In addition, the activity at 3 µM in experiment [2] amounted to 411%.

As for `CN1CCN(c2ccc(-c3n[nH]c4cc(=O)n(-c5cccc6c5OCO6)nc34)cc2)CC1` [Compound 76], in experiment [1], the IC50 was ≤ 50 nM. In experiment [2], the activity at 3 µM amounted to 561%.

Consider `COc1cc(F)cc(F)c1-n1nc2c(-c3ccc(N4CCN(C)CC4)cc3)n[nH]c2cc1=O` [Compound 77, 5-(2,4-difluoro-6-methoxyphenyl)-3-(4-(4-methylpiperazin-1-yl)phenyl)-1H-pyrazolo[4,3-c]pyridazin-6(5H)-one], for which, in experiment [1], the IC50 is ≤ 50 nM. The activity at 1 µM in experiment [2] worked out at 233%.

For `CNC(=O)c1cc(F)c(-n2nc3c(-c4ccc(N5CCN(C)CC5)cc4)n[nH]c3cc2=O)c(OC)c1` [Compound 79, 3-fluoro-5-methoxy-N-methyl-4-(3-(4-(4-methylpiperazin-1-yl)phenyl)-6-oxo-1H-pyrazolo[4,3-c]pyridazin-5(6H)-yl)benzamide], the IC50 in experiment [1] is ≤ 50 nM. In experiment [2], the activity at 3 µM was 361%.

`COc1cc(C(=O)N(C)C)cc(F)c1-n1nc2c(-c3ccc(N4CCN(C)CC4)cc3)n[nH]c2cc1=O` [Compound 80, 3-fluoro-5-methoxy-N,N-dimethyl-4-(3-(4-(4-methylpiperazin-1-yl)phenyl)-6-oxo-1H-pyrazolo[4,3-c]pyridazin-5(6H)-yl)benzamide]: the half-inhibitory concentration (IC50) in experiment [1] was ≤ 50 nM. The activity at 3 µM in experiment [2] was 191%.

As to `[2H]C([2H])([2H])N1CCN(c2ccc(-c3n[nH]c4cc(=O)n(-c5c(C)cccc5F)nc34)cc2)CC1` [Compound 81, 5-(2-fluoro-6-methylphenyl)-3-(4-(4-(methyl-d3)piperazin-1-yl)phenyl)-1H-pyrazolo[4,3-c]pyridazin-6(5H)-one], in experiment [1], the IC50 is ≤ 50 nM. For the same compound, the activity at 3 µM in experiment [2] was determined as 679%.

Turning to `Cc1cc(C#N)cc(F)c1-n1nc2c(-c3ccc(N4CCN(C(=O)[C@H](C)N)CC4)cc3)n[nH]c2cc1=O` [Compound 82], the IC50 in experiment [1] was ≤ 50 nM. Besides, the activity at 3 µM in experiment [2] came to 195%.

For `Cc1cc(C#N)cc(F)c1-n1nc2c(-c3ccc(N4CCN(C(=O)C(C)O)CC4)cc3)n[nH]c2cc1=O` (stereo not shown) [Compound 83], in experiment [1], the IC50 is ≤ 50 nM. The activity at 3 µM in experiment [2] stood at 252%.

Regarding `Cc1cc(C#N)cc(F)c1-n1nc2c(-c3ccc(N4CCN(C5CCOC5)CC4)cc3)n[nH]c2cc1=O` (stereo not shown) [Compound 85, 3-fluoro-5-methyl-4-(6-oxo-3-(4-(4-(tetrahydrofuran-3-yl)piperazin-1-yl)phenyl)-1H-pyrazolo[4,3-c]pyridazin-5(6H)-yl)benzonitrile], the half-inhibitory concentration (IC50) in experiment [1] is ≤ 50 nM. In addition, in experiment [2], the activity at 3 µM is 239%.

Consider `COc1cc(C#N)cc(F)c1-n1nc2c(-c3ccc(N4CCN(C5COC5)CC4)cc3)n[nH]c2cc1=O` [Compound 86, 3-fluoro-5-methoxy-4-(3-(4-(4-(oxetan-3-yl)piperazin-1-yl)phenyl)-6-oxo-1H-pyrazolo[4,3-c]pyridazin-5(6H)-yl)benzonitrile], for which the IC50 in experiment [1] was ≤ 50 nM. For the same compound, the activity at 3 µM in experiment [2] worked out at 334%.

With `Cc1cccc(F)c1-n1nc2c(-c3ccc(N4C[C@@H]5C[C@H]4CN5C)cc3)n[nH]c2cc1=O` [Compound 87], the IC50 in experiment [1] was ≤ 50 nM. The activity at 3 µM in experiment [2] amounted to 584%.

As to `Cc1cccc(F)c1-n1nc2c(-c3ccc(N4C[C@H]5C[C@@H]4CN5C)cc3)n[nH]c2cc1=O` [Compound 88, 5-(2-fluoro-6-methylphenyl)-3-(4-((1R,4R)-5-methyl-2,5-diazabicyclo[2.2.1]heptan-2-yl)phenyl)-1H-pyrazolo[4,3-c]pyridazin-6(5H)-one], the IC50 in experiment [1] was in the range of 50 to 500 nM. Further, in experiment [2], the activity at 3 µM turned out to be 550%.

`Cc1cccc(F)c1-n1nc2c(-c3ccc(N4CCN(C)C(C)(C)C4)cc3)n[nH]c2cc1=O` [Compound 89, 5-(2-fluoro-6-methylphenyl)-3-(4-(3,3,4-trimethylpiperazin-1-yl)phenyl)-1H-pyrazolo[4,3-c]pyridazin-6(5H)-one]: the IC50 in experiment [1] was ≤ 50 nM. Further, the activity at 3 µM in experiment [2] came out at 689%.

For the compound `Cc1cccc(F)c1-n1nc2c(-c3ccc(N4C[C@@H](C)N(C)[C@@H](C)C4)cc3)n[nH]c2cc1=O` [Compound 90, 5-(2-fluoro-6-methylphenyl)-3-(4-((3S,5R)-3,4,5-trimethylpiperazin-1-yl)phenyl)-1H-pyrazolo[4,3-c]pyridazin-6(5H)-one], the IC50 in experiment [1] was ≤ 50 nM. In experiment [2], the activity at 3 µM was 667%.
